According to patent publication US20250177502A1, “THROMBIN AND FIBRINOGEN AS TARGETS FOR ATOPIC DERMATITIS DIAGNOSIS AND TREATMENT” (Children's Hospital Medical Center, priority 2022, published 2025):

Key:
[1] = Bivalirudin solubility and precipitation in aqueous solutions; type: physicochemical
Experimental: Direct thrombin inhibitor bivalirudin was formulated in a lyophilized formulation containing 50 mg/mL of bivalirudin, 25 mg/mL of mannitol, and NaOH for pH adjustment to 5-6. […] The lyophilized bivalirudin was reconstituted with 5 mL water to a concentration of 50 mg/mL.

[2] = Absorption of topically applied bivalirudin: prothrombin time on homogenized ex vivo mouse skin samples; type: in vitro ADME; conditions: reconstituted bivalirudin 50 mg/mL applied to ex vivo mouse skin for 0, 5 or 15 minutes, then washed
Experimental: Reconstituted bivalirudin was applied to ex vivo mouse skin samples for 0, 5, or 15 minutes then repeatedly washed, the samples were homogenized, and finally a prothrombin time was run on the homogenized skin samples. […] FIG. 10 illustrates absorption of topically applied bivalirudin by measuring prothrombin time.

CC[C@H](C)[C@H](NC(=O)[C@H](CCC(=O)O)NC(=O)[C@H](CCC(=O)O)NC(=O)[C@H](Cc1ccccc1)NC(=O)[C@H](CC(=O)O)NC(=O)CNC(=O)[C@H](CC(N)=O)NC(=O)CNC(=O)CNC(=O)CNC(=O)CNC(=O)[C@@H]1CCCN1C(=O)[C@H](CCCNC(=N)N)NC(=O)[C@@H]1CCCN1C(=O)[C@H](N)Cc1ccccc1)C(=O)N1CCC[C@H]1C(=O)N[C@@H](CCC(=O)O)C(=O)N[C@@H](CCC(=O)O)C(=O)N[C@@H](Cc1ccc(O)cc1)C(=O)N[C@@H](CC(C)C)C(=O)O [bivalirudin]
solubility: influence of pH [1]: influenced by pH
solubility: influence of temperature and addition of mannitol [1]: not affected
absorption by skin and retained function (prothrombin time of homogenized skin) [2]: is absorbed and retains function
